Assay [1] has as its target T1, Muscarinic acetylcholine receptor M1 (Homo sapiens, UniProt P11229).
T1 sequence (P11229 whole entry): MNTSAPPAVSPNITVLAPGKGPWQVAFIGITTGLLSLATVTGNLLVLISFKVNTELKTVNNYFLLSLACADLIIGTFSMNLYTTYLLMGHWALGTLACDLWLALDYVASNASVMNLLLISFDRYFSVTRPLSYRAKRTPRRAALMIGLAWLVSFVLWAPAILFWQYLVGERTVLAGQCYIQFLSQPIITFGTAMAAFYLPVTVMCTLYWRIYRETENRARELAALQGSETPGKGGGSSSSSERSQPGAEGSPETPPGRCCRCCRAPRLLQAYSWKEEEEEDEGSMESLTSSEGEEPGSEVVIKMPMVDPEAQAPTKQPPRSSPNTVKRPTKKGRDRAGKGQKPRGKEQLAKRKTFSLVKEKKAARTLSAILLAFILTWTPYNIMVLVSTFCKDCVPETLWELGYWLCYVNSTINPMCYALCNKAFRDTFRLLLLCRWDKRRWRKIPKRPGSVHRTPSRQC

Assay [2] concerns the target T2, Bile acid receptor (Homo sapiens, UniProt Q96RI1).
T2 sequence (Q96RI1 whole entry): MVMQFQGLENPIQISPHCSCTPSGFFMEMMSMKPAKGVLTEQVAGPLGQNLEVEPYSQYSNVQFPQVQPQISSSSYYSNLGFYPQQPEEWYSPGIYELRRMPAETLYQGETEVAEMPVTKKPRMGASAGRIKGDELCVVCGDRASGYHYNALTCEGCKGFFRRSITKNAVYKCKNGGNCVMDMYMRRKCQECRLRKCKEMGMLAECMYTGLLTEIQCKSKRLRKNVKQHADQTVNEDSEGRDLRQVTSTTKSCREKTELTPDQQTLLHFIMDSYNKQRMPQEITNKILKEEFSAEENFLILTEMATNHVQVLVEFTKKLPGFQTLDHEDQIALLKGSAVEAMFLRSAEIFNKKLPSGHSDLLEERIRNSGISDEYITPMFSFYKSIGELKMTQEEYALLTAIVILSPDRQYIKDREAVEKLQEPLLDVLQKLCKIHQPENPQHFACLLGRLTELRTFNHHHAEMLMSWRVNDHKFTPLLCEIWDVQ
The format is functional.

Assay [3] deals with T3, Nuclear receptor subfamily 1 group I member 3 (Homo sapiens, UniProt Q14994).
T3 sequence (Q14994 whole entry): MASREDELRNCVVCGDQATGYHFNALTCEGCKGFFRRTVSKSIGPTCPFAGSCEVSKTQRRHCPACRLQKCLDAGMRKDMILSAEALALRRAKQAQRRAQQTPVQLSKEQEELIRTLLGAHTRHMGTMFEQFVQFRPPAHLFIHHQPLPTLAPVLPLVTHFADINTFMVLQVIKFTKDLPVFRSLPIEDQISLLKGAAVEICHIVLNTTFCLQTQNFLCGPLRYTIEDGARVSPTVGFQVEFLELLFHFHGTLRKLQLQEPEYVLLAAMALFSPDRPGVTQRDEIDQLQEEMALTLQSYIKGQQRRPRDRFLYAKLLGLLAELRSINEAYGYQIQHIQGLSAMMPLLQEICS
The format is functional.

Assay [4] has as its target T2, Bile acid receptor. It is filed as functional. The source holds these as a separate data set.
Assay [5] has as its target T4, Oxysterols receptor LXR-beta (Homo sapiens, UniProt P55055).
T4 sequence (P55055 whole entry): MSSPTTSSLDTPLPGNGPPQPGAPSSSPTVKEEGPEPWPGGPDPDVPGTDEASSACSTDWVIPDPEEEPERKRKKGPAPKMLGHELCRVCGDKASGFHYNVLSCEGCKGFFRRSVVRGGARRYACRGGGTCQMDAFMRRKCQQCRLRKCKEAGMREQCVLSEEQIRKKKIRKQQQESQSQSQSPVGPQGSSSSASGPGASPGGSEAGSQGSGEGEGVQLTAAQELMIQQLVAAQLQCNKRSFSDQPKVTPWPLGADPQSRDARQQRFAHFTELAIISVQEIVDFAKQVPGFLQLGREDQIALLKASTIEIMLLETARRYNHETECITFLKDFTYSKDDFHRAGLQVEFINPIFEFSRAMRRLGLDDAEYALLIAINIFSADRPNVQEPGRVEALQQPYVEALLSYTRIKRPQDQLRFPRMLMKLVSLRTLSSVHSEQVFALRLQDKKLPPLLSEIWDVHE
The format is functional.

Assay [6] has as its target Beta-1 adrenergic receptor (Homo sapiens, UniProt P08588). The format is functional, cell-based.
Assay [7] has as its target T5, Oxysterols receptor LXR-alpha (Homo sapiens, UniProt Q13133).
T5 sequence (Q13133 whole entry): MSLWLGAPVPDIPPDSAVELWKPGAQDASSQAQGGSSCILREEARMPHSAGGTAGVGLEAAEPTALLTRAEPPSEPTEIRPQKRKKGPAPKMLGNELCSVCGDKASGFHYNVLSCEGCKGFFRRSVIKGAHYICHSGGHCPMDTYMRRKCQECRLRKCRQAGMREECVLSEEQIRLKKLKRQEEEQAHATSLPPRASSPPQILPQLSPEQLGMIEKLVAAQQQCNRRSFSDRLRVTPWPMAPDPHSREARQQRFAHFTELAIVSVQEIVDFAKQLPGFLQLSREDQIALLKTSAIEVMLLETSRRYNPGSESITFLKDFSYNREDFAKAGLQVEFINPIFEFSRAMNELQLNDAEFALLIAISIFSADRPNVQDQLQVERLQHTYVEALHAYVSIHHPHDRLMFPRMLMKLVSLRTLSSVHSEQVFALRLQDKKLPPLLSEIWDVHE
It is filed as functional.

The target of a further assay is T6, Substance-K receptor (Homo sapiens, UniProt P21452).
T6 sequence (P21452 whole entry): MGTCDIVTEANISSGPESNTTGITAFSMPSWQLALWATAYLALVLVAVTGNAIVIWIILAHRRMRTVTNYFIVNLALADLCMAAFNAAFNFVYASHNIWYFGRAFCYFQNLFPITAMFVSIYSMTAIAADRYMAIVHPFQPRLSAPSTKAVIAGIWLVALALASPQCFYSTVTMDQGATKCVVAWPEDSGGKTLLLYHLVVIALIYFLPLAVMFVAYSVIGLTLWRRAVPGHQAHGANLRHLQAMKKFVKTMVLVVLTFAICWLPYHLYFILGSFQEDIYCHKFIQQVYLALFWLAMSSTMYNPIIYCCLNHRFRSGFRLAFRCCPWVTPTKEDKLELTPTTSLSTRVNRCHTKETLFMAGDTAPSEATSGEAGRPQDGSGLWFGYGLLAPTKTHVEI

For assay [8], the target named is Hydroxycarboxylic acid receptor 2 (Homo sapiens, UniProt Q8TDS4).
Hydroxycarboxylic acid receptor 2, sequence (Q8TDS4 whole entry): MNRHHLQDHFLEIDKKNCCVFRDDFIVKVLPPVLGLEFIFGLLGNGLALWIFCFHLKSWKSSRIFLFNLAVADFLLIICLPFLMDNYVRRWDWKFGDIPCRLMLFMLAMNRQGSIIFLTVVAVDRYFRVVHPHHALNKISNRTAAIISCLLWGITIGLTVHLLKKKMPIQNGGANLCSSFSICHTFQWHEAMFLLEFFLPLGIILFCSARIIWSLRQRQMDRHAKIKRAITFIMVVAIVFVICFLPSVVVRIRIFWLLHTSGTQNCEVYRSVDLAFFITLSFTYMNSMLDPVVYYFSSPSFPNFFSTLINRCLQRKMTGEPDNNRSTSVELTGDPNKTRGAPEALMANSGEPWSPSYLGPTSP
Assay [9] has as its target 5-hydroxytryptamine receptor 2B (Homo sapiens, UniProt P41595).
Further: assay procedure not described here.

5-hydroxytryptamine receptor 2B, sequence (P41595 whole entry): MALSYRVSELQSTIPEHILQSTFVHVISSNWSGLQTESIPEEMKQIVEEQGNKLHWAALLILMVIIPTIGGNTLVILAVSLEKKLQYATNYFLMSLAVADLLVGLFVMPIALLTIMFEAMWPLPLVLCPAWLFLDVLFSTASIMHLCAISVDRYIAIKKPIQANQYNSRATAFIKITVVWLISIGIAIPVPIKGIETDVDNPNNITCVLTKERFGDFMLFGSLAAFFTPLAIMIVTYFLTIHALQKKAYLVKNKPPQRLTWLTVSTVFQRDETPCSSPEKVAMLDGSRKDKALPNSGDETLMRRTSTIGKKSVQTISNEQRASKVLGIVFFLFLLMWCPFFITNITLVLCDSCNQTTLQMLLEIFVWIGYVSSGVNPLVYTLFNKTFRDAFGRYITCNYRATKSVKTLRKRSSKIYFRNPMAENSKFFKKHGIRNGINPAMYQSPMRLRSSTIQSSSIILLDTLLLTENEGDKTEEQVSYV
Beta-1 adrenergic receptor, sequence (P08588 whole entry): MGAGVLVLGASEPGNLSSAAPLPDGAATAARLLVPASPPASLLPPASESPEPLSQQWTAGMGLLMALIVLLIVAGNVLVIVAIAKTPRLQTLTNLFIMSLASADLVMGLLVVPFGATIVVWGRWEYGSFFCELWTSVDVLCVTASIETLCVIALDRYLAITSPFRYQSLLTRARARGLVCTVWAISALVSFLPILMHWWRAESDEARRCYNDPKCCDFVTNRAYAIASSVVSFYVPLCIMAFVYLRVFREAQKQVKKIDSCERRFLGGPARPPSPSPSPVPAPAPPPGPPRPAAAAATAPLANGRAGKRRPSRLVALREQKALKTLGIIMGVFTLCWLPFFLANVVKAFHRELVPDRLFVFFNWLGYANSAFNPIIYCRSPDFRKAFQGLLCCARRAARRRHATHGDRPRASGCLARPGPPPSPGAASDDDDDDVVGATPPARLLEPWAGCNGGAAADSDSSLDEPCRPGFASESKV

As a reminder, the AC50 is the concentration at which the activity in the assay is half-maximal. Consider `O=C(Nc1cccc2c(=O)cc(-c3nnn[nH]3)oc12)c1ccc(OCCCCc2ccccc2)cc1`, for which, in [1], the AC50 was found to be 28 µM.

Turning to `CC(/C=C1\SC(=S)N(CC(=O)O)C1=O)=C\c1ccccc1`, the AC50 at Bile acid receptor [2] was greater than 30 µM; in assay [3], 3.6 µM; at Bile acid receptor [4], 4 µM; in assay [5] it was greater than 30 µM; in [6] it was greater than 30 µM; in assay [7], greater than 30 µM. For `CC1(C)S[C@@H]2[C@H](NC(=O)[C@H](N)c3ccc(O)cc3)C(=O)N2[C@H]1C(=O)O` [AMOXICILLIN], the AC50 on Bile acid receptor [2] was greater than 30 µM; in assay [3], 15 µM; on Bile acid receptor [4], greater than 30 µM; in assay [5] it was greater than 30 µM; in assay [7] it was greater than 30 µM; at Substance-K receptor it was greater than 10 µM. `Clc1cccc(Cl)c1N=C1NCCN1` [CLONIDINE] displayed an AC50 in assay [8] greater than 10 µM. With `COC(=O)[C@H](c1ccccc1Cl)N1CCc2sccc2C1` [CLOPIDOGREL], the AC50 on Substance-K receptor was greater than 10 µM.

In assay [9], `CN1C[C@H](C(=O)N[C@]2(C)O[C@@]3(O)[C@@H]4CCCN4C(=O)[C@H](Cc4ccccc4)N3C2=O)C[C@@H]2c3cccc4[nH]cc(c34)C[C@H]21` [DIHYDROERGOTAMINE] registered an AC50 of 0.0444 µM. For the molecule `CCC(=O)O[C@@H](O[P@](=O)(CCCCc1ccccc1)CC(=O)N1C[C@H](C2CCCCC2)C[C@H]1C(=O)O)C(C)C` [FOSINOPRIL], in assay [1], the AC50 was greater than 30 µM. Regarding `Nc1nc(O)c2ncn(COC(CO)CO)c2n1` [GANCICLOVIR], the AC50 in assay [6] was greater than 30 µM. On Substance-K receptor, `Cc1cnc(NC(=O)C2=C(O)c3ccccc3S(=O)(=O)N2C)s1` [MELOXICAM] gave an AC50 greater than 10 µM. For `CC[C@@H](CO)NC(=O)[C@@H]1C=C2c3cccc4[nH]cc(c34)C[C@H]2N(C)C1` [METHYLERGONOVINE], in assay [9], half-maximal activity (AC50) was put at 0.0054 µM. As for `CN(C)c1cc(CNCC(C)(C)C)c(O)c2c1C[C@H]1C[C@H]3[C@H](N(C)C)C(O)=C(C(N)=O)C(=O)[C@@]3(O)C(O)=C1C2=O` [OMADACYCLINE], the AC50 in [1] is greater than 30 µM. As to `COc1ccnc(C[S+]([O-])c2nc3ccc(OC(F)F)cc3[nH]2)c1OC` (centres undefined) [PANTOPRAZOLE], the AC50 in [8] was greater than 10 µM. Consider `CNC(=O)c1cc(Oc2ccc(NC(=O)Nc3ccc(Cl)c(C(F)(F)F)c3)c(F)c2)ccn1` [REGORAFENIB], for which the half-maximal activity concentration (AC50) on Bile acid receptor [2] was 7.2 µM; in assay [3], 24 µM; in assay [1] it was 2.37 µM; on Bile acid receptor [4] it was greater than 30 µM; in [5] it was greater than 30 µM; in assay [7] it was greater than 30 µM.

As for `CCOc1cc(CC(=O)N[C@@H](CC(C)C)c2ccccc2N2CCCCC2)ccc1C(=O)O` [REPAGLINIDE], the AC50 on Bile acid receptor [2] was 6.5 µM; in assay [3], 5 µM; at Bile acid receptor [4] it was 27 µM; in assay [5], greater than 30 µM; in [7], greater than 30 µM. `CCCN(CCC)CCc1cccc2c1CC(=O)N2` [ROPINIROLE] had an AC50 in assay [9] of 13.4 µM. As to `CC(C)N(CCCCOCC(=O)NS(C)(=O)=O)c1cnc(-c2ccccc2)c(-c2ccccc2)n1` [SELEXIPAG], the AC50 in [6] was greater than 30 µM.

Molecule `CC(=O)S[C@@H]1CC2=CC(=O)CC[C@]2(C)[C@H]2CC[C@@]3(C)[C@@H](CC[C@@]34CCC(=O)O4)[C@H]12` [SPIRONOLACTONE] gave a half-maximal activity concentration (AC50) in assay [8] greater than 10 µM. On Substance-K receptor, `CCCCNc1ccc(C(=O)OCCN(C)C)cc1` [TETRACAINE] returned an AC50 greater than 10 µM. `CN1CCN(CCCN2c3ccccc3Sc3ccc(S(=O)(=O)N(C)C)cc32)CC1` [THIOPROPERAZINE] came in with an AC50 in assay [1] of 3.24 µM. The molecule `Cc1cc(CC(=O)O)n(C)c1C(=O)c1ccc(Cl)cc1` [ZOMEPIRAC] came in with an AC50 in assay [6] greater than 30 µM.
